In PMC5514404 (EBioMedicine, 2017):

Assays:
HIV-1 replication = details: ref Ewart et al., 2004; cited from earlier work
[1] = tested on: extracellular HIV-1 Tat release from HEK293T cells; assay: HIV-1 Tat secretion assay; format: cell-based, human
[2] = tested on: Na^+,K^+-ATPase α1 subunit (interaction with Tat); assay: Co-immunoprecipitation of Tat with endogenous Na^+,K^+-ATPase α1 subunit; format: cell-based, human; details: HEK293T, Tat86 transfected; ouabain 25 μM, 4 h
[3] = tested on: HIV-1 LTR transactivation in HL3T1 cells by supernatants of Tat86-transfected HEK293T cells; assay: Transcellular transactivation assay; format: cell-based; details: ouabain 25 μM, 4 h; HL3T1 24 h; CAT ELISA
[4] = tested on: VSV-G pseudotyped HIV-1NL4.3E-R-Luc production by HEK293T cells; format: cell-based
[5] = tested on: wt HIV-1BRU production by HEK293T cells; format: cell-based; details: p24 ELISA; ouabain; P<0.01 over untreated
[6] = tested on: VSV-G-pseudotyped HIV-1NL4.3E-R-Luc infectivity in Jurkat cells; format: cell-based
[7] = tested on: HIV-1BRU infectivity in Jurkat cells; format: cell-based; details: P < 0.01
[8] = tested on: HIV-1BRU infectivity in primary CD4 + lymphocytes; format: cell-based; details: p24 at 72 h, P < 0.01
[9] = tested on: VSV-G-pseudotyped HIV-1NL4.3E-R-Luc infection of Jurkat cells; format: cell-based
HEK293T cells = details: ouabain 15 h
rat Na^+,K^+-ATPase = details: ref Emanuel et al., 1988; cited from earlier work
[10] = tested on: rat Na^+,K^+-ATPase α1 (interaction with Tat); assay: Co-immunoprecipitation of Tat with transfected rat Na^+,K^+-ATPase α1; details: HEK293T transfected with rat α1 constructs and Tat86-TK / Tat11-TK
[11] = molecular target: Tat86 used in surface plasmon resonance (HIV-1 (strain HXB2), UniProt P04608 1-86); assay: SPR

In the case of `CCN(c1nc(N)c(C(=O)NC(=N)N)nc1Cl)C(C)C` [EIPA, 5-(N-ethyl-N-isopropyl)amiloride], the “effect on HIV-1 replication” value (HIV-1 replication) is given as “known to limit HIV-1 replication”.

With `C[C@@H]1O[C@@H](O[C@H]2C[C@@H](O)[C@]3(CO)[C@H]4[C@H](O)C[C@]5(C)[C@@H](C6=CC(=O)OC6)CC[C@]5(O)[C@@H]4CC[C@]3(O)C2)[C@H](O)[C@H](O)[C@H]1O` [ouabain] the “effect on Tat protein production” value ([1]; protein levels in whole cell extracts, ouabain 25 μM) was “did not affect Tat protein production”, the “effect on Tat-α1 co-immunoprecipitation (endogenous α1)” value [2] was “abolished this interaction” and the “effect of ouabain on transcellular transactivation” value [3] was “blocked transcellular transactivation”. The “production of VSV-G pseudotyped virions” value [4] was “significantly decreased the production of VSV-G pseudotyped virions”, the “production of wt HIV-1BRU virions” value [5] was “The same was also observed for wt HIV-1BRU virions” and the “infectivity of virions produced in presence of ouabain” value [6] was “markedly less infectious”. The “viral integration (Alu-PCR) by virions produced in presence of ouabain” value [6] was “reduced viral integration”, the “viral integration (Alu-PCR) by HIV-1BRU produced in presence of ouabain” value [7] was “reduced viral integration” and the “infectivity of HIV-1BRU produced in presence of ouabain” value ([7]; p24 at 72 h) was “markedly less infectious”. The “infectivity of HIV-1BRU produced in presence of ouabain” value [8] was “markedly less infectious”, the “effect of ouabain present at infection on virions produced without ouabain” value [9] was “unaffected by the presence of the drug” and the “cell toxicity during virus production” value (HEK293T cells) was “did not exert significant cell toxicity”. The “sensitivity of rat Na^+,K^+-ATPase enzyme to ouabain” value (rat Na^+,K^+-ATPase) was “insensitive to ouabain” and the “co-immunoprecipitation with Tat / ouabain effect, rat α1” value [10] was “binding is not sensitive to ouabain”.

With heparin the “amount of free Tat-TK protein in the supernatant” value ([1]; HEK293T, soluble heparin 25 μM) was “increased”.

Work on TRRNSVFQQGMKN (peptide, UniProt P06685 939-951, looked up) [synthetic P2 peptide] yielded an IC50 [11] of 10 µM.

B1: PMIX, equimolar mixture of the individual P1, P2 and P3 peptides (other, rat)
peptide 1: YEQAESDIMKRQPRNPKTDK
peptide 2: TRRNSVFQQGMKN
peptide 3: LIIRRRPGGWVEKETYY
B1 showed an IC50 [11] of 0.5 µM.
